Assay results: ChEMBL document CHEMBL3885881, “DrugMatrix”

Species: Rattus norvegicus
Assay: DrugMatrix - Regimen: Daily Repeat
Assay type: toxicity, organism-based, Sprague-Dawley
Set-up: regimen Daily Repeat, gender Male, age 6-8 weeks
Details: in vivo, po, route oral GAVAGE, vehicle 100 % WATER; for ABSOLUTE BASOPHIL / ABSOLUTE EOSINOPHIL / ABSOLUTE LYMPHOCYTE / ABSOLUTE MONOCYTE / ABSOLUTE SEGMENTED NEUTROPHIL / BASOPHIL / EOSINOPHIL / ERYTHROCYTE COUNT / HEMATOCRIT / HEMOGLOBIN / LEUKOCYTE COUNT / LYMPHOCYTE / MEAN CORPUSCULAR HEMOGLOBIN / MEAN CORPUSCULAR HEMOGLOBIN CONCENTRATION / MEAN CORPUSCULAR VOLUME / MONOCYTE / NEUTROPHIL / NUCLEATED RED BLOOD CELLS / PLATELET COUNT: tissue Blood; for ALANINE AMINOTRANSFERASE / ALBUMIN / ALKALINE PHOSPHATASE / ASPARTATE AMINOTRANSFERASE / BLOOD UREA NITROGEN / CARBON DIOXIDE / CHLORIDE / CHOLESTEROL / CREATINE PHOSPHOKINASE / CREATININE / GLUCOSE / LACTATE DEHYDROGENASE / LIPASE / PHOSPHORUS / POTASSIUM / SODIUM / TOTAL BILIRUBIN / TOTAL PROTEIN / URIC ACID: tissue Plasma
[1] = 100 mg/kg, 120 h, dose level Low, time 5 day
[2] = 750 mg/kg, 72 h, dose level High, time 3 day
[3] = 750 mg/kg, 120 h, dose level High, time 5 day

Structure (SMILES): NC(=O)c1cccnc1 [NIACINAMIDE]
- ABSOLUTE BASOPHIL [1]: 0 CELLS/uL
- ABSOLUTE EOSINOPHIL [1]: 0 CELLS/uL
- ABSOLUTE LYMPHOCYTE [1]: 16541 CELLS/uL
- ABSOLUTE MONOCYTE [1]: 560 CELLS/uL
- ABSOLUTE SEGMENTED NEUTROPHIL [1]: 1799 CELLS/uL
- BASOPHIL [1]: 0%
- EOSINOPHIL [1]: 0%
- ERYTHROCYTE COUNT [1]: 5.76 x10E6/uL
- HEMATOCRIT [1]: 36.2%
- HEMOGLOBIN [1]: 13.57 G/DL
- LEUKOCYTE COUNT [1]: 18.9 x10E3/uL
- LYMPHOCYTE [1]: 87.67%
- MEAN CORPUSCULAR HEMOGLOBIN [1]: 23.57 pg
- MEAN CORPUSCULAR HEMOGLOBIN CONCENTRATION [1]: 37.47 G/DL
- MEAN CORPUSCULAR VOLUME [1]: 62.9 fL
- MONOCYTE [1]: 3%
- NEUTROPHIL [1]: 9.33%
- NUCLEATED RED BLOOD CELLS [1]: 0 /100WBC
- PLATELET COUNT [1]: 1257.67 x10E3/uL
- ALANINE AMINOTRANSFERASE [1]: 69.67 u/L
- ALBUMIN [1]: 4.27 G/DL
- ALKALINE PHOSPHATASE [1]: 376.67 u/L
- ASPARTATE AMINOTRANSFERASE [1]: 99.33 u/L
- BLOOD UREA NITROGEN [1]: 17 mg/dL
- CARBON DIOXIDE [1]: 24.33 mmol/L
- CHLORIDE [1]: 102.67 MEQ/L
- CHOLESTEROL [1]: 67.67 mg/dL
- CREATINE PHOSPHOKINASE [1]: 270.33 u/L
- CREATININE [1]: 0.34 mg/dL
- GLUCOSE [1]: 140.67 mg/dL
- LACTATE DEHYDROGENASE [1]: 278 u/L
- LIPASE [1]: 10.67 u/L
- PHOSPHORUS [1]: 13.13 mg/dL
- POTASSIUM [1]: 6.68 MEQ/L
- SODIUM [1]: 145.57 MEQ/L
- TOTAL BILIRUBIN [1]: 0.2 mg/dL
- TOTAL PROTEIN [1]: 6.03 G/DL
- URIC ACID [1]: 1.6 mg/dL
- ABSOLUTE BASOPHIL [2]: 0 CELLS/uL
- ABSOLUTE EOSINOPHIL [2]: 108.33 CELLS/uL
- ABSOLUTE LYMPHOCYTE [2]: 16413 CELLS/uL
- ABSOLUTE MONOCYTE [2]: 47.67 CELLS/uL
- ABSOLUTE SEGMENTED NEUTROPHIL [2]: 1431 CELLS/uL
- BASOPHIL [2]: 0%
- EOSINOPHIL [2]: 0.67%
- ERYTHROCYTE COUNT [2]: 6.31 x10E6/uL
- HEMATOCRIT [2]: 40.5%
- HEMOGLOBIN [2]: 14.57 G/DL
- LEUKOCYTE COUNT [2]: 18 x10E3/uL
- LYMPHOCYTE [2]: 91%
- MEAN CORPUSCULAR HEMOGLOBIN [2]: 23.2 pg
- MEAN CORPUSCULAR HEMOGLOBIN CONCENTRATION [2]: 36 G/DL
- MEAN CORPUSCULAR VOLUME [2]: 64.37 fL
- MONOCYTE [2]: 0.33%
- NEUTROPHIL [2]: 8%
- NUCLEATED RED BLOOD CELLS [2]: 0 /100WBC
- PLATELET COUNT [2]: 1228.67 x10E3/uL
- ALANINE AMINOTRANSFERASE [2]: 84 u/L
- ALBUMIN [2]: 4.57 G/DL
- ALKALINE PHOSPHATASE [2]: 402 u/L
- ASPARTATE AMINOTRANSFERASE [2]: 97.33 u/L
- BLOOD UREA NITROGEN [2]: 17 mg/dL
- CARBON DIOXIDE [2]: 27.33 mmol/L
- CHLORIDE [2]: 101 MEQ/L
- CHOLESTEROL [2]: 85 mg/dL
- CREATINE PHOSPHOKINASE [2]: 304.67 u/L
- CREATININE [2]: 0.23 mg/dL
- GLUCOSE [2]: 150.67 mg/dL
- LACTATE DEHYDROGENASE [2]: 174.67 u/L
- LIPASE [2]: 11 u/L
- PHOSPHORUS [2]: 10.23 mg/dL
- POTASSIUM [2]: 6.7 MEQ/L
- SODIUM [2]: 143.83 MEQ/L
- TOTAL BILIRUBIN [2]: 0.2 mg/dL
- TOTAL PROTEIN [2]: 6.17 G/DL
- URIC ACID [2]: 1.8 mg/dL
- ABSOLUTE BASOPHIL [3]: 0 CELLS/uL
- ABSOLUTE EOSINOPHIL [3]: 45.33 CELLS/uL
- ABSOLUTE LYMPHOCYTE [3]: 12211.67 CELLS/uL
- ABSOLUTE MONOCYTE [3]: 352 CELLS/uL
- ABSOLUTE SEGMENTED NEUTROPHIL [3]: 1824.33 CELLS/uL
- BASOPHIL [3]: 0%
- EOSINOPHIL [3]: 0.33%
- ERYTHROCYTE COUNT [3]: 5.73 x10E6/uL
- HEMATOCRIT [3]: 36.63%
- HEMOGLOBIN [3]: 13.6 G/DL
- LEUKOCYTE COUNT [3]: 14.43 x10E3/uL
- LYMPHOCYTE [3]: 85.33%
- MEAN CORPUSCULAR HEMOGLOBIN [3]: 23.77 pg
- MEAN CORPUSCULAR HEMOGLOBIN CONCENTRATION [3]: 37.13 G/DL
- MEAN CORPUSCULAR VOLUME [3]: 63.93 fL
- MONOCYTE [3]: 2.33%
- NEUTROPHIL [3]: 12%
- NUCLEATED RED BLOOD CELLS [3]: 0 /100WBC
- PLATELET COUNT [3]: 1227.33 x10E3/uL
- ALANINE AMINOTRANSFERASE [3]: 71.67 u/L
- ALBUMIN [3]: 4.53 G/DL
- ALKALINE PHOSPHATASE [3]: 405.67 u/L
- ASPARTATE AMINOTRANSFERASE [3]: 97 u/L
- BLOOD UREA NITROGEN [3]: 18 mg/dL
- CARBON DIOXIDE [3]: 28.67 mmol/L
- CHLORIDE [3]: 101.67 MEQ/L
- CHOLESTEROL [3]: 92 mg/dL
- CREATINE PHOSPHOKINASE [3]: 216.33 u/L
- CREATININE [3]: 0.2 mg/dL
- GLUCOSE [3]: 160.33 mg/dL
- LACTATE DEHYDROGENASE [3]: 82 u/L
- LIPASE [3]: 11 u/L
- PHOSPHORUS [3]: 10.6 mg/dL
- POTASSIUM [3]: 5.82 MEQ/L
- SODIUM [3]: 147.1 MEQ/L
- TOTAL BILIRUBIN [3]: 0.2 mg/dL
- TOTAL PROTEIN [3]: 6.33 G/DL
- URIC ACID [3]: 1.3 mg/dL
